These results are taken from patent US5968801A, “Polyhydroxyalkanoate depolymerase and process for producing the same” (Taisei Corporation, priority 1997, dated 1999).

The target of this experiment is PHA depolymerase. Format: biochemical, Corynebacterium aquaticum IM-1. The conditions noted are these: pH 6.5; read-out: IC50 (concentration of inhibitor at which the enzyme activity was inhibited by 50%).

Regarding `O=S(=O)(F)Cc1ccccc1` [PMSF, Phenylmethylsulfonyl fluoride], the IC50 stood at 1.92 mM.

In the case of `O[C@H](CS)[C@H](O)CS` (racemic) [DTT, dithiothreitol], the IC50 amounted to 73 mM.
